Experimental data taken from patent publication US20230097801A1, “METHODS OF INCREASING CELL PHAGOCYTOSIS” (National Health Research Institutes, priority 2021, published 2023).
“Also recorded” adds a separate entry of the source. Like-named read-outs stand apart in the source and are kept apart here.

Columns and labels:
CD47 [1] = assay: Flow cytometry, anti-human CD47 CC2C6 antibody binding on Raji cell surface; format: cell-based
Procedure: (§1) Binding between CD47 and SIRPα was studied by measuring the level of CD47 binding using any suitable method. Flow cytometric analysis is useful to quantify the level of binding of CD47 to antibody CC2C6, which is then subjected to an immune-staining procedure using fluorochrome-conjugated secondary antibody followed by analysis of the immune-staining signal with a flow cytometry instrument to obtain the level of the CD47-CC2C6 binding. In another method, analysis of CD47 is performed using SIRPα-Fc formed from SIRPα fused with human IgG1, which is then subjected to an immune-staining procedure using fluorochrome-conjugated secondary antibody against human IgG1, followed by analysis of the immune-staining signal. SIRPα is expressed on the surface of a myeloid cell such as macrophage, monocyte, neutrophil, or dendritic cell. Alternatively, SIRPα is fused with human IgG1 to form a SIRPα-Fc recombinant protein. […] An anti-cancer agent (e.g., rituximab) can be used together with a compound of formula (I). Useful anti-cancer agents are described above including anti-PD-L1 antibodies, anti-CD20 antibodies, anti-HER2 antibodies, anti-EGFR antibodies, and anti-CD47 antibodies. Other suitable anti-cancer agents are chemotherapeutic agents such as doxorubicin, epirubicin, idarubicin, methotrexate, mitoxantrone, oxaliplatin, and cyclophosphamide.
Human B-cell lymphoma Raji cells were purchased from BCRC, Taiwan. Raji cells were maintained at 37° C. under 5% CO2 in RPMI-1640 medium (Hyclone, Marlborough, Mass.) supplemented with 10% fetal bovine serum (FBS) (SAFC, Sigma-Aldrich, St. Louis, Mo.) containing 2 mM L-glutamine (Hyclone, Marlborough, Mass.), 10 mM HEPES (Hyclone, Marlborough, Mass.) and 1 mM sodium pyruvate (Hyclone, Marlborough, Mass.).
(§2) Antibody conjugates and extracellular domain of SIRPα used to analyze cell surface CD47 binding include anti-human CD47 CC2C6, 2D3, recombinant human SIRPα/CD172a Fc chimer protein, and anti-human IgG Fc. To determine inhibition of CD47 binding, cancer cells were treated with compounds of formula (I) at various concentrations for 4 days. Thereafter, the cells were washed with PBS containing 0.5% BSA (FACS buffer) followed by incubation with fluorochrome-labeled antibodies to human CD47 (i.e., CC2C6 and 2D3) at 1:50 dilution in FACS buffer for 30 minutes at 4° C. Compounds of formula (I) produced a dose-dependent inhibition of anti-CD47 CC2C6 antibody that recognized CD47 and SIRPα binding site on the tumor cell surface including B-cell lymphoma Raji cells, colon cancer cells DLD-1, and ovarian cancer SK-OV-3 cells (see FIGS. 1A, 1B, and 1C, respectively).

CD47 [2] = assay: Flow cytometry, anti-human CD47 CC2C6 antibody binding on DLD-1 cell surface; format: cell-based
Procedure: as §1
Human colon cancer DLD-1 cells were obtained from NHRI IBPR HTS Lab, Taiwan. DLD-1 cells were maintained under the same conditions described immediately above.
as §2

Mouse pk profiles = format: in vivo
[3] = Plasma and tumor concentrations in Raji xenograft mice; format: in vivo; conditions: for concentration at 2 h: 2 hours after the last dose
Procedure: A pharmacokinetic study was conducted to evaluate plasma and tumor concentrations of Compound 34 using human B-cell lymphoma Raji xenograft tumors. One million Raji cells in culture medium and matrigel (1:1, v/v) were injected subcutaneously into the left flank region of each mouse. Treatments were initiated after randomization with inclusion of tumors at approximately 90 mm^3. A dosing vehicle for Compound 34 was prepared using 10% DMA: 40% PEG400: 50% (1% CMC) (v/v/v) and was dosed orally (p.o.) at 100 mg/kg once a day and 5 days a week (Q.D.*5). The mice were treated with either the vehicle control or Compound 34 for 3 weeks. They were sacrificed 2, 4, 8, or 24 hours after the last dose (n=4 per time point). Tumor and plasma were collected to determine concentrations of Compound 34.

CD47 [4] = assay: Pharmacodynamic study, CC2C6 binding and total CD47 on Raji xenograft tumor cells; format: in vivo, human; conditions: 100 mg/kg p.o. QD*5, 10 days
Procedure: A pharmacodynamic study was also conducted to evaluate target engagement of Compound 34. In this study, one million Raji cells in culture medium and matrigel (1:1, v/v) were injected subcutaneously into the left flank region of each mouse. Treatments were initiated after randomization with inclusion of tumors at approximately 150 mm^3. A dosing vehicle for Compound 34 was prepared using 10% DMA: 40% PEG400: 50% (1% CMC) (v/v/v) and was dosed orally (p.o.) at 100 mg/kg once a day and 5 days a week (Q.D.*5). The mice were treated with either the vehicle control or Compound 34 for 10 days. They were then sacrificed 24 hours after the last dose (n=4 per group). Tumors were harvested and isolated into single cell suspensions for flow cytometry analysis. Unexpectedly, Compound 34 reduced 56% of anti-CD47 CC2C6 antibody binding on the tumor cell surface, as indicated by a decreasing level of anti-CC2C6^+ tumor cells in the Compound 34-treated mice as compared to the vehicle-treated mice.

## O=C1NC[C@H](c2ccc(-c3csc(C(F)(F)F)c3)c(F)c2F)N1c1ccc2[nH]cnc2c1 [Compound 34]
CD47 [1]; B-cell Lymphoma (Raji cells), 4 days treatment, read-out: IC50, inhibition of CC2C6 binding
  IC50: 1100 nM
CD47 [1]; Raji cells
  inhibition of binding of anti-human CD47 antibody CC2C6 (in words): specifically affected anti-CD47 CC2C6 antibody; also recorded: effectively inhibited
CD47 [2]; Colon Cancer (DLD-1 cells), 4 days treatment, read-out: IC50, inhibition of CC2C6 binding
  IC50: 580 nM
CD47 [2]; DLD-1 cells
  inhibition of binding of anti-human CD47 antibody CC2C6 (in words): effectively inhibited
Mouse pk profiles; IV (2 mg/kg)
  AUC Plasma: 8869 ng·h/g
Mouse pk profiles; PO (30 mg/kg)
  AUC Plasma: 56451 ng·h/g
Mouse pk profiles; plasma, IV (2 mg/kg)
  clearance: 4.6 mL/min/kg
Mouse pk profiles; plasma, PO (30 mg/kg)
  Cmax: 1980 ng/mL
Mouse pk profiles; plasma, PO (30 mg/kg) vs IV (2 mg/kg)
  bioavailability: 43%
Mouse pk profiles; plasma, PO (30 mg/kg), read-out: T1/2 (h) Plasma (converted)
  half-life: 9.3 h
[3]; 100 mg/kg p.o. QD*5 for 3 weeks, next 22 hours (2 to 24 hours after the last dose)
  tumor concentration: ≥ 27,507 ng/g tissue weight
[3]; mouse, plasma, oral, 100 mg/kg p.o. QD*5 for 3 weeks, read-out: plasma concentration
  concentration at 2 h: 18600 ng/mL
[3]; mouse, plasma, oral, 100 mg/kg p.o. QD*5 for 3 weeks, 24 hours after the last dose
  concentration at 24 h: 5360 ng/mL
[3]; mouse, tumor, oral, 100 mg/kg p.o. QD*5 for 3 weeks, read-out: tumor concentration
  concentration at 2 h: 29700 ng/g
[3]; within 24 hours post treatment
  tumor concentrations versus plasma (in words): much higher than those in plasma
CD47 [4]
  total CD47 expression level on the tumor cell surface: did not affect a total CD47 expression level; also recorded: without affecting a total CD47 expression level
